Test results published in patent US20240083949A1, “CELL PENETRATING PEPTIDE COMPOSITIONS AND METHODS THEREOF” (The Regents of the University of California, priority 2022, published 2024).
“Also recorded” adds a separate entry of the source. Starred links: 1 amine or outer side, 2 acyl side, 3 side chain; linkers in the order of their positions; H or OH if unused. Positions of bridges follow the written chain, without caps; N, C: chain ends. Non-standard residues stand in square brackets, D forms with d. Residues, ends and D or L forms follow the SMILES beside them. Triazole bridges read from a SMILES are 1,4-linked. ξ: configuration not given here. *: point of attachment. RhodamineB = CCN(CC)c1ccc2c(-c3ccccc3C(=O)*)c3ccc(=[N+](CC)CC)cc-3oc2c1; X1 = Nc1ccn([C@@H]2O[C@H](COC(=O)CCC(=O)*)[C@@H](O)C2(F)F)c(=O)n1; Lys(N3) = [N-]=[N+]=NCCCC[C@H](N)C(=O)O; ξLys(N3) = [N-]=[N+]=NCCCCC(N)C(=O)O; NMeGABA = CN(CCCC(=O)[*:2])[*:1]; dPra = C#CC[C@@H](N)C(=O)O; Pra = C#CC[C@H](N)C(=O)O

Columns and labels:
FIBCD1-KO U87 cell line = settings: 500 nM, FIBCD1-KO U87 cells, crystal violet
Source text: (§1) Crystal violet staining is a cell viability test used to determine if a drug or molecule is killing cells based on the difference in cell number from the untreated control. U87 cells are an adherent cell line if they are alive and healthy, they attach securely to the bottom of the petri dish. Herein we passaged U87 cells into a 96-well plate and made quadruplets for each concentration of the drug we planned to use. After staining the cells that remained after treatment with both the drug and the EPP6-GEM conjugate, the cells were then photographed with a cell phone and compared to the control wells (FIGS. 12A-13C).

U87 cells [1] = settings: 500 nM, crystal violet
Source text: as §1

U87 = experiment: Confocal microscopy for internalization of EPP6-GEM; type: cell-based, human; settings: 500 nM, U87 cells
Description: After purification of this conjugate, EPP6-GEM was dissolved in DMSO and diluted to 500 nM in full media (DMEM) and administered to the immortalized glioblastoma cell line U87. These cells were monitored using Confocal Microscopy for internalization of the conjugate. FIGS. 11A-11C show three images of U87 cells with different combinations of dyes internalized. […] EPP6-GEM has been outfitted with a Rhodamine B dye. […] Cell viability experiments were carried out to determine if the conjugate can kill cells at a similar rate to the free drug or at an improved rate.

U87 cells [2] = experiment: Intracellular trafficking of EPP6 conjugates (endosome markers, organelle trackers, time series, EB staining); type: cell-based, human
Description: Time series experiment. U87 Cells were incubated with RB-EPP 6 at 500 nM for 1 h. After wash with fresh medium once, the cells were kept in the 5% CO2 incubator at 37° C. for different time durations (1 h, 2 h, 6 h and 24 h) before confocal imaging.
Organelle tracker colocalization experiment. Stock solution of trackers for mitochondria, lysosome and ER were diluted with cell culture medium into 100 nM, 500 nM and 4 μM respectively. RB-EPP 6 was added into each working solution at 500 nM. U87 cells were incubated with the both trackers and RB-EPP 6 for 1 h and then washed once before confocal imaging.
(§2) Plasmid transfection assays. 300 k U87 cells were seeded in the 35×10 mm dish for overnight culture. Plasmids (caveolin, 75 ng; clathrin, 100 ng; rab5, 100 ng; rab7a, 10 ng; caveolin-1 CRISPR/Cas9 KO, 3 μg; FIBCD1 CRISPR/Cas9 KO, 3 ug; Control CRISPR, 3 ug) were diluted with Plasmid Transfection Medium (sc-108062) to 50 μl. UltraCruz Transfection Reagent (Santa Cruz Biotechnology) was also diluted with Plasmid Transfection Medium to 50 μl. Plasmids and transfection reagent were mixed well and kept at room temperature for 20 min. Replace the cells with PS free medium and add the mixture to the cells, culture for another 24 h.
Ethidium bromide (EB) staining. U87 cells were incubated with 2 μg/ml EB with or without the conjugation of EPP6 for an hour, 3 hours and 6 hours respectively. After 1 h and the cells were washed with fresh phenol-free media once before confocal imaging.
Statistical analysis. Pearson's correlation coefficient was used to calculate correlation between RB and tracker channels in the organelle tracker experiment. Graph generation and statistical analyses were performed using Fiji software.

U87 cells [3] = experiment: Temperature control comparison experiment (RB-EPP6 uptake at 37° C. and 4° C.); type: cell-based, human; settings: 500 nM, 1 h
Description: (§3) Confocal Imaging experiments. To image the cells, a Zeiss 880 inverted confocal laser scanning microscope (Carl Zeiss, Germany) was used. Image acquisition and analyses were carried out using the manufacturer's software (ZEN, Carl Zeiss). Quantification of fluorescence intensity in single cells was performed using Fiji software.
Temperature control comparison experiment. U87 cells were kept in the cold room for half an hour before incubated with RB-EPP 6. After that, cells were incubated with RB-EPP 6 at 500 nM at 4° C. Cells in the control group were incubated at 37° C. After 1 h, cells were wash with fresh medium once respectively before confocal imaging.

U87 cells [4] = experiment: Confocal imaging of Dye-EPP uptake in U87 cells; type: cell-based, human; settings: RB-tagged EPPs, U87 cells, confocal imaging, ranking among EPP1-7
Description: as §3
Dye-EPP incubation. For general incubation, 300 k U87 cells were seeded in full medium containing 10% FBS and 1% PS in a 35×10 mm petri dish. The cells were incubated overnight in full medium. Stock solution of Dye-EPPs were made in DMSO to reach a concentration of 500 μM. Fresh cell culture medium was used to dilute the stock solution to 500 nM and replace the old medium on day 2. Cells were incubated with RB-EPPs for different time periods, followed by a one-time wash with phenol-free fresh culture medium before measurements.
Concentration gradient experiment. U87 Cells were incubated with RB-EPP 6 at different concentrations (20 nM, 200 nM, 2 μM, 20 μM, 50 μM and 100 μM). After wash with fresh medium once cells were examined by confocal imaging.

Lipid binding assay = settings: liposomes, RB-EPP6 1 nM to 10 μM
Description: Lipid binding assay. 95% egg PC, 5% nitrobenzoxadiazole (NBD) were added to 1% cholesterol, PE, PG, ganglioside, SM and PA to make liposomes individually. RB-EPP 6 was diluted with HEPES buffer to different concentrations, ranging from 1 nM to 10 μM. For each lipid type, 400 μl liposomes of 50 μg/ml were added to 400 μl of each RB-EPP 6 concentration. The mixture was incubated at room temperature for 15 min. 80 μl of each condition was collected to measure the fluorescence intensity of NBD suing the Synergy H1 microplate reader.

MDCK cells = settings: MDCK monolayer, trans-well, three hours
Description: (§4) MDCK transwell assay. 200 k MDCK cells were seeded in 200 μl in complete growth media to the apical side of a transwell insert (12-well 8 μm pore size Transwell-65 mm). In addition, 1 ml complete growth media is added to the basolateral chamber. […] Incubate the plate for 2-3 days at 37° C. with 5% CO2. The electrical resistance of MDCK transwell inserts was measured using EVOM Epithelial Voltohmmeter to measure the integrity of tight junctions the following two days. On day 3, serum free media was used to wash both the apical (200 μl) and basolateral (1 ml) wells three times. Cells were kept in a 37° C./5% CO2 cell incubator equilibrating for 15 min.
(§5) The assay was carried out in both apical to basolateral and basolateral to apical direction. […] For the assay with apical to basolateral direction, the apical chamber was replaced with 200 μl testing compounds. For the assay with basolateral to apical direction, the basolateral chamber was replaced with 1 ml testing compounds. Both plates were incubated in the cell culture incubator for 3 h. After that, 80 μl of the samples were collected from each chamber for RB fluorescence intensity reading using a Synergy H1 microplate reader.

[5] = MDCK, MDCK monolayer, trans-well, three hours of incubation, 10 μM
Description: as §4, §5

U87 cells [6] = experiment: RB-EPP6 uptake after caveolin CRISPR knockout; type: cell-based, human; settings: data not shown
Description: as §2

[7] = Octanol-water partition assay; type: physicochemical
Description: Octanol-water partition assay. For each RB-EPP, pre-mix 250 μl of octanol with 250 μl of water in a 1.5 ml centrifuge tube. 2 μl of RB-EPP was added to the solution at the concentration of 500 μM. After vortex the mixture, centrifuge at the highest speed for 10 min to separate the octanol and water phases. Samples were collected from both phases and quantified by the Analytical HPLC separately.

U87 cells [8] = experiment: Colocalization of RB-EPP6 with mEmerald-caveolin and mEmerald-clathrin; type: cell-based, human; settings: transfected U87 cells, confocal
Description: as §3, §2

Row | Compound | cell killing compared with free drug (FIBCD1-KO U87 cell line) | cell killing compared with free drug (U87 cells [1]) | internalization (Rhodamine B signal) (U87) | localization in early endosomes (Rab5) (U87 cells [2]; EGFP-Rab5, after 15-min) | trafficking into mitochondria or endoplasmic reticulum (U87 cells [2]; MitoTracker, ERTracker) | localization in lysosomes (LysoTracker) (U87 cells [2]; after 3 hours) | retention in Rab7a+ vesicles (U87 cells [2]; after 4 hours) | remaining intracellular signal (U87 cells [2]; after 24 hours) | endosomal escape to cytosol (U87 cells [2]; imaging) | time to traffic into late endosomes (U87 cells [2]; mEmerald-Rab7a) [min] | uptake at low temperature (U87 cells [3]) | ability to enter the cells (intracellular fluorescence) (U87 cells [4]) | interaction with lipid components (Lipid binding assay) | Papp relative to RB-TAT (MDCK cells) | Papp [5] [×10⁻⁶ cm/s] | uptake after CRISPR caveolin (U87 cells [6]) | hydrophobicity (octanol partitioning) [7] | colocalization with mEmerald-caveolin (U87 cells [8]) | colocalization with mEmerald-clathrin (U87 cells [8])
1 | CCN(CC)c1ccc2c(-c3ccccc3C(=O)N(C)CCCC(=O)N[C@@H](CCCCNC(=O)CCC(=O)OC[C@H]3O[C@@H](n4ccc(N)nc4=O)C(F)(F)[C@@H]3O)C(=O)N[C@@H]3Cc4cn(nn4)CCCCC(C(N)=O)NC(=O)[C@H](CO)NC(=O)[C@H](Cc4ccc(O)cc4)NC(=O)[C@H](Cc4ccc(O)cc4)NC(=O)[C@H](CO)NC(=O)[C@H](Cc4ccc(O)cc4)NC3=O)c3ccc(=[N+](CC)CC)cc-3oc2c1 (some centres unmarked) [EPP6-GEM] (RhodamineB-[NMeGABA]K(X1)[dPra]YSYYS[ξLys(N3)]-NH2; triazole 3-9) | cannot perform significantly better than the free drug | can kill the cells more effectively than the free drug | some internalization is occurring | – | – | – | – | – | – | – | – | – | – | – | – | – | – | – | –
2 | CCN(CC)c1ccc2c(-c3ccccc3C(=O)N(C)CCCC(=O)N[C@H]3Cc4cn(nn4)CCCC[C@@H](C(N)=O)NC(=O)[C@H](CO)NC(=O)[C@H](Cc4ccc(O)cc4)NC(=O)[C@H](Cc4ccc(O)cc4)NC(=O)[C@H](CO)NC(=O)[C@H](Cc4ccc(O)cc4)NC3=O)c3ccc(=[N+](CC)CC)cc-3oc2c1 [RB-EPP6, RB-cy(YSYYS)] (RhodamineB-[NMeGABA][Pra]YSYYS[Lys(N3)]-NH2; triazole 2-8; N-terminus and C-terminus assumed) | – | – | much higher signals | appeared in distinct Rab5-coated vesicles | did not traffic into the mitochondria or the endoplasmic reticulum | some RB-EPP6 signals appeared in lysosomes | a significant amount of RB-EPP6 remained inside Rab7a+vesicles | some signals remained | could escape from the endosomes and enter the cytosol | ≤ 30 | no RB-EPP6 uptake; also recorded: no fluorescence signal in the cells | best performing | no appreciable interaction; also recorded: no significant interaction | more than twice that of RB-TAT | 5.25 | decreased | hydrophilic | significantly overlapped | no overlap
